Common to all, as to assay type: in vivo
For assay [1], the system named is Varroa jacobsoni (Varroa mites). The experiment in a line: Efficacy against Varroa jacobsoni parasites on infested honeybees, topical application (mite mortality). Conditions: 120 h, topical 1 μl acetone solution, 5 days, 31° C. How it is done:
(§1) Evaluation Of The Efficacy Of Test Compound Against Varroa jacobsoni Parasites
(§2) In this evaluation, honeybees (Apis mellifera) taken from hives which are 70-90% infested with Varroa jacobsoni (Varroa mites) are chilled to immobilize the bees. A 1 μl droplet of an acetone solution of tebufenpyrad is applied to the dorsal abdomen of each bee. Control bees receive 1 μl droplet of acetone. A total of 50-52 bees are treated for each dose rate tested. Treatment dose rates are based upon the LD50 (dose rate required to obtain 50% mortality of healthy uninfected bees) of tebufenypyrad and are set at 10% of the LD50 and subsequent 10-fold dilution thereof. The treated bees are placed in an incubator at 31° C. in the dark and fed 50% sugar water ad libitum for 5 days. After incubation, the bees are examined for mortality and mite infestation. The results are shown in Table I below, as % mortality of the total of the bees and the total of the mites.

The subject of assay [2] is honeybees (Apis mellifera). As to the kind of experiment: Mortality of the Varroa-infested honeybees, topical application. Conditions: 120 h, topical 1 μl acetone solution, 5 days, 31° C., read-out: % Mortality, Bees. How it is done:
as §1, §2

The test system of assay [3] is Acarapis woodi (trachea mites). The experiment in a line: Efficacy against Acarapis woodi parasites on treated glass slides. Conditions: slides dipped in 500 ppm acetone solution. From the text: Evaluation Of The Efficacy Of Test Compound Against Acarapis woodi Parasites
In this evaluation, honeybees (Apis mellifera) which are infested with Acarapis woodi (trachea mites) are dissected to remove the infested tracheae. Glass microscope slides are dipped into acetone solutions of tebufenpyrad (500 ppm)and the acetone is allowed to evaporate. Infested tracheae are placed directly on the treated slides. The mites are removed from the tracheae by dissection and forced to walk across the treated area. The elapsed time is recorded for 100% mortality, i.e. no movement is observed upon agitation.

The subject of another assay is Varroa jacobsoni. The experiment in a line: Field evaluation against Varroa jacobsoni parasites in infested beehives (stickyboard count). The following applies: two strips containing 18% tebufenpyrad in 60:40 beeswax:lard, 24 hours after treatment. The text has this: Field Evaluation Of The Efficiacy Of Test Compound Against Varroa jacobsoni Parasites
In this evaluation, two Varroa jacobsoni infested beehives are monitored for the extent of infestation using stickyboards inserted at the bottom of the hive. Data are presented as the number of mites trapped on the stickyboard per day. Two strips (2.5×17 cm) containing 18% tebufenpyrad dissolved in a 60:40 beeswax:lard (Crisco®) mixture are inserted into each hive brood chamber as per standard practice. One day after treatment, the stickyboards are removed and the dead mites counted.

Consider `CCc1nn(C)c(C(=O)NCc2ccc(C(C)(C)C)cc2)c1Cl` [Tebufenpyrad, N-(4-t-butylbenzyl)-4-chloro-3-ethyl-1-methylpyrazole-5-carboxamide], for which the mortality at 0.006 µg/bee came to 58% in assay [1] (0.006 μg/bee) and 24% in assay [2] (0.006 μg/bee). The results for the mortality at 0.06 µg/bee in assay [1] (0.06 μg/bee) and in assay [2] (0.06 μg/bee) were 44% and 25%, respectively. The mortality at 0.6 µg/bee in assay [1] (0.6 μg/bee) came out at 92%; in assay [2] (0.6 μg/bee), 28%. In addition, the “Time required to achieve 100% mortality” value turned out to be 8.5 min in assay [3] (Rep. 1, 7 mites); 8 min in assay [3] (Rep. 2, 10 mites); 8 min in assay [3] (Rep. 3, 7 mites). Further, the “Treatment mites/day (dead mites trapped on stickyboard)” value with Varroa jacobsoni (Hive 1, pretreatment 101 mites/day) is given as 1777 mites/day; in the assay on Varroa jacobsoni (Hive 2, pretreatment 66 mites/day), 1080 mites/day.

(Values after patent publication US6204283A, “Parasitic mite control on beneficial insects” (American Cyanamid Company, priority 1999, dated 2001).)
